Results published in patent US6248901A, “Heterocyclic vinyl ethers” (Hoffman-La Roche Inc., priority 1997, dated 2001).

Target: rat mGluR2 receptor (Rattus norvegicus, UniProt P31421)
Experiment: GTP γ^35 S test for affinity to group II mGluR (antagonism of 1S,3R-ACPD effect, membranes with rat mGluR2)
Assay type: biochemical
Procedure: The binding of the compounds of formula I in accordance with the invention to group II metabotropic glutamate receptors was determined in vitro. The preparations were tested in accordance with the test given hereinafter:
The GTP γ^35 S test was used to determine the affinity of a compound to the group II mGluR. Membranes which adhere to the rat mGluR2 receptor were used. These were stimulated with 10 μM 1S,3R-ACPD.
The Ki values of the compounds to be tested are given. The Ki value is defined by the following formula [formula]

Sequence of rat mGluR2 receptor (P31421 19-872): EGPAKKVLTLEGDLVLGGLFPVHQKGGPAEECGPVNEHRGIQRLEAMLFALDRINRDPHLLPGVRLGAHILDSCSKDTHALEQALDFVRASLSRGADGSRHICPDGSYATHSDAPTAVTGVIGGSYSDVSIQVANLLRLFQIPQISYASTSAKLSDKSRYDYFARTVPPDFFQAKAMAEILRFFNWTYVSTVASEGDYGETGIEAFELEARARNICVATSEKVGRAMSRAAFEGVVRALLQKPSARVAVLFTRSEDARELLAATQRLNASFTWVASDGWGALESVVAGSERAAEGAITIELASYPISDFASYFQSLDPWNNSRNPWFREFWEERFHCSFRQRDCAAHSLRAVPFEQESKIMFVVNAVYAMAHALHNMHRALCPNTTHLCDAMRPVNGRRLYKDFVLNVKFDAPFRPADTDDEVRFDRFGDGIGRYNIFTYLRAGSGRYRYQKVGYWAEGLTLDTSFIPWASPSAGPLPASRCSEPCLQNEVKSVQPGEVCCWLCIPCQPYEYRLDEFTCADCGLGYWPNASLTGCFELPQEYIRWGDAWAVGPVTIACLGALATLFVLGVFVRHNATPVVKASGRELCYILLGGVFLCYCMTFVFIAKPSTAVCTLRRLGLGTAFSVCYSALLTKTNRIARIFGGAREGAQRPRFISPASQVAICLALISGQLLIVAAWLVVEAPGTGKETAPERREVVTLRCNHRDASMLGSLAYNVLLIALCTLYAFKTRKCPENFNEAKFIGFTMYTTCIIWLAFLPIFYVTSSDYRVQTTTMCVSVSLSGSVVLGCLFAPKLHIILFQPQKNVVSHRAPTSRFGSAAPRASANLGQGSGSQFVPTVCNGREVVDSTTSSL

SMILES | Ki
CC(C)OC(=Cn1cncn1)c1ccc(Cl)cc1Cl [A, 1-[2-(2,4-Dichloro-phenyl)-2-isopropoxy-vinyl]-1H-[1,2,4]triazole] | 1170 nM
CC(C)COC(=Cn1cncn1)c1ccc(Cl)cc1Cl [B, 1-[2-(2,4-Dichloro-phenyl)-2-isobutoxy-vinyl]-1H-[1,2,4]triazole] | 640 nM
CCCCOC(=Cn1cncn1)c1ccc(Cl)cc1Cl [C, 1-[-2-(2,4-Dichloro-phenyl)-2-butoxy-2-vinyl]-1H-[1,2,4]triazole] | 1400 nM
CC(C)OC(=Cn1cncn1)c1c(Cl)cc(Cl)cc1Cl [D, 1-[2-(2,4,6-Trichloro-phenyl)-2-isopropoxy-vinyl]-1H-[1,2,4]triazole] | 2700 nM
COC(=Cn1cncn1)c1ccc(Cl)cc1Cl [E, 1-[2-(2,4-Dichloro-phenyl)-2-methoxy-vinyl]-1H-[1,2,4]triazole] | 11000 nM
CCCCOC(=Cn1cncn1)c1ccc(Br)cc1 [F, 1-[2-(4-Bromo-phenyl)-2-butoxy-vinyl]-1H-[1,2,4]triazole] | 660 nM
